Laboratory results published in patent publication US7919680B2, “Nucleic acids encoding anthelmintic agents and plants made therefrom” (Divergence, Inc., priority 2004, dated 2011).

What was measured:
[1] = system: C. elegans dauers; assay: Nematicidal activity of methyl ester, salt and free fatty acid emulsions vs. C. elegans dauers (Table 4); type: in vivo, Caenorhabditis elegans
[2] = system: everted hamster jejunal and ileal segments; details: Gaginella et al. (1975); cited from earlier work
[3] = system: C. elegans; assay: Nematicidal activity of methyl ester, salt and free fatty acid emulsions vs. C. elegans N2s (Table 3); type: in vivo, Caenorhabditis elegans
From the text: Nematicidal Activity of Single Fatty Acid Methyl Ester, Salt and Free Fatty Acid Emulsions Against Caenorhabditis elegans […] and Dauers

[4] = system: isolated intestinal epithelial cells; details: Gaginella et al. (1977); cited from earlier work
[5] = system: M. javanica; assay: Nematicidal activity of fatty acid methyl ester emulsions, nematode spectrum (Table 6); type: in vivo, Meloidogyne javanica; details: M. javanica 2nd stage juveniles, head 24 hr, b171 48 hours
Method: (§1) Briefly, the indicated fatty acid emulsions were added to nematodes in wells of a 24-well plate and rapidly mixed by swirling. […] Results shown are mean % values obtained from multiple independent experiments
(§2) The Caenorhabditis elegans were mixed stage populations. Similar effects were seen on several other free-living nematode species. The Parastrongyloides trichosuri (parasite of Australian bushtail possum) were dauer-like infective 3rd stage larva. Similar effects are also seen against free-living stages. The Meloidogyne incognita and Meloidogyne javanica (root knot nematode) were 2nd stage juveniles (dauer-like infective stage). The Heterodera glycines (soybean cyst nematode) were 2nd stage juveniles (dauer-like infective stage). Finally, the Pratylenchus scribneri (corn lesion nematode) were mixed stage populations.

[6] = system: C. elegans; assay: Nematicidal activity of fatty acid methyl ester emulsions against C. elegans (Table 2)
[7] = system: tomato seedlings; assay: Phytotoxicity evaluation of fatty acid methyl esters on tomato seedlings; type: in vivo; details: 250 μl of 1% emulsion at stem-media interface of two-week seedlings
Method: Sterilized tomato seeds were germinated in magenta jars containing Gamborg's agar media. After two weeks of growth, seedlings were treated with 250 μl of 1% fatty acid methyl ester emulsion (nonanoic acid, ricinoleic acid, ricinelaidic acid, oleic acid, or a control emulsion lacking any fatty acid), applied directly to the stem-media interface. Tomato seedlings were scored at various times after application of emulsions.

[8] = system: wide spectrum of divergent nematode genera; assay: Summary of Table 6: free-living, animal parasitic and plant parasitic nematodes; type: in vivo; details: concentrations of 0.1% and 0.01%
Method: as §1

[9] = system: M. incognita; assay: Nematicidal activity of fatty acid methyl ester emulsions, nematode spectrum (Table 6); type: in vivo, Meloidogyne incognita; details: M. incognita 2nd stage juveniles, head 24 hr, b171 48 hours
Method: as §1, §2

[10] = system: C. elegans; assay: as above; type: in vivo, Caenorhabditis elegans; details: C. elegans mixed stage
Method: as §1, §2

[11] = system: P. scribneri; assay: as above; type: in vivo, Pratylenchus scribneri; details: P. scribneri mixed stage
Method: as §1, §2

[12] = system: P. trichosuri; assay: as above; type: in vivo, Parastrongyloides trichosuri; details: P. trichosuri infective 3rd stage larva
Method: as §1, §2

[13] = system: H. glycines; assay: as above; type: in vivo, Heterodera glycines; details: H. glycines 2nd stage juveniles, head 24 hr, b171 48 hours
Method: as §1, §2

[14] = system: M. javanica; assay: Nematicidal activity of fatty acid methyl ester emulsions against root knot nematode J2 larvae (Table 5); type: in vivo; details: 0.1% emulsion; 48 hours incubation, counted about 24 hours after transfer to plates
Method: (§3) M. incognita and M. javanica were prepared from tomato roots. The roots were bleached and the debris was separated from the J2 larvae and eggs by filtration followed by sucrose density gradient centrifugation. Eggs were hatched over 4 days at 15° C. and the J2 larvae were collected by passage though a filter, followed by centrifugation.
(§4) Nematodes and emulsions were incubated with shaking at room temperature for 48 hours. The contents of each well were transferred to a small spot on individual NGM plates lacking bacteria. About 24 hours after the transfer to plates, worms on and off the inoculation spot were counted as not viable or viable, respectively. Worms were considered viable if they had crawled away from the inoculation spot, or if they were moving. Worms were considered non-viable if they remained at the inoculation spot.

[15] = system: M. incognita; assay: as above; type: in vivo; details: 0.1% emulsion; 48 hours incubation, counted about 24 hours after transfer to plates
Method: as §3, §4

[16] = system: Caenorhabditis elegans; details: 100 μg/mL over 24 hours; Momin & Nair (2002); cited from earlier work
[17] = system: L4 and adult C. elegans; details: Stadler and coworkers; cited from earlier work
[18] = system: Panagrellus redivivus; details: 100 μg/mL over 24 hours; Momin & Nair (2002); cited from earlier work

CCCCCC[C@@H](O)C/C=C\CCCCCCCC(=O)O [R free acid, ricinoleic acid]
worm death ([1]; 0.01% emulsion): 75% | worm death ([1]; 0.1% emulsion): 90% | effect on water and electrolyte absorption [2]: inhibitory effect | worm death ([3]; 0.001% emulsion): <5% | worm death ([3]; 0.01% emulsion): 50% | worm death ([3]; 0.1% emulsion): 95% | cytotoxicity [4]: cytotoxic

CCCCCC[C@@H](O)C/C=C\CCCCCCCC(=O)OC [Ricinoleic Acid (C18-methyl ester), ricinoleic acid methyl ester]
% Worm Death (24 hr) ([5]; 0.01% solution): 5% | % Worm Death (24 hr) ([5]; 0.1% solution): 60% | Percentage of Worm Death 1 hr ([6]; 0.003% emulsion): 40% | Percentage of Worm Death 6 hr ([6]; 0.003% emulsion): 40% | Percentage of Worm Death 24 hr ([6]; 0.003% emulsion): 40% | Percentage of Worm Death 1 hr ([6]; 0.1% emulsion): 80% | Percentage of Worm Death 6 hr ([6]; 0.1% emulsion): 80% | Percentage of Worm Death 24 hr ([6]; 0.1% emulsion): 90% | nematicidal activity ([6]; concentration of 0.1%): strongly nematicidal | time before strong killing effects are apparent ([6]; emulsion, Table 2): up to 30 minutes | phytotoxic effects on tomato seedlings [7]: low phytotoxicity | nematicidal activity [8]: strongly nematicidal | worm death ([1]; 0.01% emulsion): 30% | worm death ([1]; 0.1% emulsion): 70% | % Worm Death (24 hr) ([9]; 0.01% solution): 83% | % Worm Death (24 hr) ([9]; 0.1% solution): 95% | % Worm Death (24 hr) ([10]; 0.001% solution): 30% | % Worm Death (24 hr) ([10]; 0.01% solution): 50% | % Worm Death (24 hr) ([10]; 0.1% solution): 90% | % Worm Death (24 hr) ([11]; 0.01% solution): <20% | % Worm Death (24 hr) ([11]; 0.1% solution): <20% | % Worm Death (24 hr) ([12]; 0.01% solution): ~60% | % Worm Death (24 hr) ([12]; 0.1% solution): ~50% | % Worm Death (24 hr) ([13]; 0.001% solution): ~40% | % Worm Death (24 hr) ([13]; 0.01% solution): ~60% | % Worm Death (24 hr) ([13]; 0.1% solution): ~60% | effect on water and electrolyte absorption [2]: ineffective | worm death ([3]; 0.001% emulsion): 20% | worm death ([3]; 0.01% emulsion): 40% | worm death ([3]; 0.1% emulsion): 90% | M. javanica (% not viable) [14]: 60% | M. incognita (% not viable) [15]: 95%

CCCCCCCC/C=C\CCCCCCCC(=O)O [oleic acid]
nematicidal activity [16]: not nematicidal | LD50 [17]: 25 µg/mL | LD90 [17]: 100 µg/mL | nematicidal activity [18]: not nematicidal
